Measurements reported in PubChem BioAssay (NCI).
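Exposure lasted 48 hours, with cells grown in 96-well plates and compounds tested at five concentrations. Here, GI50 denotes the concentration required for 50% inhibition of growth. At the TGI there is no net growth.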

Key:
Assay in all cases: NCI-60 cell line screen, 48 h
[1] = tested on: SW-620 colon
[2] = tested on: CCRF-CEM leukemia
[3] = tested on: SF-539 CNS
[4] = tested on: OVCAR-8 ovarian
[5] = tested on: CAKI-1 renal
[6] = tested on: RXF 393 renal
[7] = tested on: DU-145 prostate
[8] = tested on: EKVX NSCLC
[9] = tested on: HCT-15 colon
[10] = tested on: KM12 colon
[11] = tested on: OVCAR-4 ovarian
[12] = tested on: OVCAR-5 ovarian
[13] = tested on: MDA-MB-231 breast
[14] = tested on: OVCAR-3 ovarian
[15] = tested on: SNB-19 CNS
[16] = tested on: SK-MEL-5 melanoma
[17] = tested on: MCF7 breast
[18] = tested on: NCI-H460 lung
[19] = tested on: MALME-3M melanoma
[20] = tested on: ACHN renal
[21] = tested on: HL-60(TB) leukemia
[22] = tested on: 786-0 renal
[23] = tested on: UACC-62 melanoma
[24] = tested on: BT-549 breast
[25] = tested on: SF-268 CNS
[26] = tested on: HOP-92 NSCLC
[27] = tested on: HT29 colon
[28] = tested on: M14 melanoma
[29] = tested on: RPMI-8226 leukemia
[30] = tested on: HOP-62 NSCLC
[31] = tested on: SK-MEL-28 melanoma
[32] = tested on: K-562 leukemia
[33] = tested on: SN12C renal
[34] = tested on: SNB-75 CNS
[35] = tested on: MOLT-4 leukemia
[36] = tested on: PC-3 prostate
[37] = tested on: MDA-MB-435
[38] = tested on: COLO 205 colon
[39] = tested on: HCC-2998 colon
[40] = tested on: TK-10 renal
[41] = tested on: IGROV1 ovarian
[42] = tested on: T-47D breast
[43] = tested on: UACC-257 melanoma
[44] = tested on: LOX IMVI melanoma
[45] = tested on: SR leukemia
[46] = tested on: NCI-H226 lung
[47] = tested on: NCI-H522 lung
[48] = tested on: UO-31 renal
[49] = tested on: HCT-116 colon
[50] = tested on: SK-MEL-2 melanoma
[51] = tested on: NCI-H23 lung
[52] = tested on: SK-OV-3 ovarian
[53] = tested on: A498 renal
[54] = tested on: U251 CNS
[55] = tested on: NCI/ADR-RES ovarian
[56] = tested on: SF-295 CNS

COC1=CC(c2ccc[nH]2)=N/C1=C\c1[nH]c(C)c(C(=O)CCCCC(=O)Nc2ccccc2)c1C
GI50 [1]: 1.02 µM
TGI [1]: 2.34 µM
GI50 [2]: 0.261 µM
TGI [2]: 1.43 µM
GI50 [3]: 3.78 µM
TGI [3]: 9.78 µM
GI50 [4]: 2.02 µM
TGI [4]: 4.82 µM
GI50 [5]: 4.75 µM
TGI [5]: 11.9 µM
GI50 [6]: 1.03 µM
TGI [6]: 2.23 µM
GI50 [7]: 1.2 µM
TGI [7]: 2.5 µM
GI50 [8]: 2.64 µM
TGI [8]: 19.8 µM
GI50 [9]: 0.679 µM
TGI [9]: 2.44 µM
GI50 [10]: 1.03 µM
TGI [10]: 2.3 µM
GI50 [11]: 1.56 µM
TGI [11]: 3.96 µM
GI50 [12]: 3.14 µM
TGI [12]: 16.5 µM
GI50 [13]: 0.396 µM
TGI [13]: 1.95 µM
GI50 [14]: 1.21 µM
TGI [14]: 2.51 µM
GI50 [15]: 6.09 µM
TGI [15]: 20.8 µM
GI50 [16]: 4.22 µM
TGI [16]: 11.6 µM
GI50 [17]: 1.37 µM
TGI [17]: 2.75 µM
GI50 [18]: 1.25 µM
TGI [18]: 2.63 µM
GI50 [19]: 1.28 µM
TGI [19]: 3.16 µM
GI50 [20]: 10.3 µM
TGI [20]: 24 µM
GI50 [21]: 1.84 µM
TGI [21]: 5.37 µM
GI50 [22]: 4.79 µM
TGI [22]: 12.6 µM
GI50 [23]: 8.71 µM
TGI [23]: 24.5 µM
GI50 [24]: 1.77 µM
TGI [24]: 13.4 µM
GI50 [25]: 1.26 µM
TGI [25]: 2.72 µM
GI50 [26]: 1.4 µM
TGI [26]: 3.37 µM
GI50 [27]: 0.693 µM
TGI [27]: 2.52 µM
GI50 [28]: 2.01 µM
TGI [28]: 4.51 µM
GI50 [29]: 0.142 µM
TGI [29]: 1.82 µM
GI50 [30]: 2.98 µM
TGI [30]: 9.7 µM
GI50 [31]: 1.63 µM
TGI [31]: 3.2 µM
GI50 [32]: 1.43 µM
TGI [32]: 2.74 µM
GI50 [33]: 1.67 µM
TGI [33]: 4.38 µM
GI50 [34]: 2.8 µM
TGI [34]: 11.4 µM
GI50 [35]: 0.522 µM
TGI [35]: 2.01 µM
GI50 [36]: 1.15 µM
TGI [36]: 2.43 µM
GI50 [37]: 1.79 µM
TGI [37]: 3.74 µM
GI50 [38]: 1.75 µM
TGI [38]: 3.8 µM
GI50 [39]: 3.78 µM
TGI [39]: 16.7 µM
GI50 [40]: 1.66 µM
TGI [40]: 3.38 µM
GI50 [41]: 0.811 µM
TGI [41]: 2.07 µM
GI50 [42]: 1.99 µM
TGI [42]: 6.14 µM
GI50 [43]: 12.2 µM
TGI [43]: 34 µM
GI50 [44]: 1.13 µM
TGI [44]: 2.34 µM
GI50 [45]: 0.636 µM
TGI [45]: 3.69 µM
GI50 [46]: 1.85 µM
TGI [46]: 6.11 µM
GI50 [47]: 1.32 µM
TGI [47]: 3.46 µM
GI50 [48]: 1.43 µM
TGI [48]: 3.12 µM
GI50 [49]: 1.64 µM
TGI [49]: 3 µM
GI50 [50]: 11.9 µM
TGI [50]: 26.7 µM
GI50 [51]: 1.87 µM
TGI [51]: 4.8 µM
GI50 [52]: 18.3 µM
TGI [52]: 40.1 µM
GI50 [53]: 5.92 µM
TGI [53]: 20.6 µM
GI50 [54]: 1.29 µM
TGI [54]: 2.56 µM
GI50 [55]: 1.89 µM
TGI [55]: 3.69 µM
GI50 [56]: 6.11 µM
TGI [56]: 29.2 µM

Nc1ncnc2c1ncn2CC(CO)CC(c1ccccc1)P(=O)(O)O (stereo not drawn)
TGI [28]: 1.64 µM
